The nature of the test: Tested for inhibition against purified catalytic subunit of protein phosphatase-1 from rabbit skeletal muscle.

Broadly, the IC50 is the concentration that gives 50% inhibition.

Take `C/C=C1/C(=O)N[C@@H](C(=O)O)[C@H](C)C(=O)N[C@@H](C(C)C)C(=O)N[C@@H](/C=C/C(C)=C/[C@H](C)[C@H](Cc2ccccc2)OC)[C@H](C)C(=O)N[C@@H](C(=O)O)CCC(=O)N1C` [Motuporin]: the IC50 was less than 1 nM.

(Values after BindingDB's records for doi:10.1016/S0960-894X(00)80281-4 (1993).)
